Reference: patent publication US20240174622A1, “COMPOUND AND RADIOACTIVE LABELING COMPOUND” (NIHON MEDI-PHYSICS CO., LTD., priority 2021, published 2024)

Assays:
[1] = test system: LNCaP tumor-transplanted mouse; experiment: Internal radioactivity distribution using LNCaP tumor-transplanted mouse; assay type: in vivo
Procedure: (§1) The animal test was performed in compliance with the guidelines of Kyoto University Animal Experiment Committee. Male CB17/IcrJcl-Prkdc^scid mice were purchased from CLEA Japan, Inc. The animals were kept under 12 h/12 h, day/night cycle conditions and fed ad libitum with food and water. LNCaP cells (1.0×10^7 cells/mouse) or PC-3 cells (1.0×10^7 cells/mouse) were suspended in a mixture of PBS and Matrigel manufactured by Corning Life Sciences (1:1, 150 μL) and the suspension was subcutaneously transplanted to the right shoulder of mice under isoflurane anesthesia. Thereafter, the mice were kept for 40 to 60 days.
LNCaP or PC-3 tumor-implanted mice were administered saline solutions (185 kBq, 100 μL) of [^111In]In-PSMA-DA1 or [^111In]In-PSMA-DB from the tail vein (n=3 each). Mice were euthanized 1, 4, 24, 48, 96, and 192 hours after administration. Thereafter, blood and each organ were recovered, and the mass and radioactivity of the organs were measured.
The percentage (% ID) of the radioactivity amount to the administered radioactivity amount (injected dose) is shown as the value (% ID/g) divided by the blood mass or the organ mass (g).
LNCaP tumor-implanted mice prepared by the same method as in Example 1-1 were administered a saline solution (241 kBq/100 μL) of [^111In]In-PtDA from the tail vein (n=3). Mice were euthanized 1, 24, and 48 hours after administration. Thereafter, blood and each organ were recovered, and the mass and radioactivity of the organs were measured.
LNCaP tumor-implanted mice prepared by the same method as in Example 1-1 were administered a saline solution (259 kBq/100 μL each) of each of the radiolabeled compounds in Examples 3-1 to 3-3 or Comparative Examples 2-1 to 2-2 from the tail vein (n=2 to 3). Mice were euthanized 1, 4, 24, 48, 96, and 192 hours after administration. Thereafter, blood and each organ were recovered, and the mass and radioactivity of the organs were measured.
as §1, with “LNCaP cells (4.3×10^6 cells/mouse) or” for “LNCaP cells (1.0×10^7 cells/mouse) or”, “PC-3 cells (3.3×10^6 cells/mouse) were” for “PC-3 cells (1.0×10^7 cells/mouse) were”, “shoulder of CB17/IcrJcl-Prkdc^scid mice under” for “shoulder of mice under”
Mice were euthanized 1, 4, 24, 48, 96, and 192 hours after administration. Thereafter, blood and each organ were recovered, and the mass and radioactivity of the organs were measured.
The results are shown in Table 12 (Mean value±standard deviation, n=3).

[2] = biological target: human serum albumin (HSA) (Homo sapiens, UniProt P02768); experiment: Evaluation of binding to albumin (HSA solution, PBS control); details: left to stand in HSA solution (45 mg/mL)
Procedure: Thereafter, the reaction liquids were added to a spin column (Sephadex G-100; manufactured by Cytiva), and centrifuged at 1500×g at 4° C. for 2 minutes. After separation, the radioactivity for each of the column and the eluate was measured with a gamma counter.
When a compound to be evaluated binds to albumin to form a composite, the compound passes through the column because of the increased molecular size.
As in Examples described above, PBS and human albumin were used to evaluate binding to albumin.
Thereafter, the reaction liquid was added to a spin column (Sephadex G-50; manufactured by Cytiva), and centrifuged at 1500×g at 4° C. for 2 minutes. After separation, the radioactivity of the column and the eluate was measured with a gamma counter.

Sequence of human serum albumin (HSA) (P02768 25-609): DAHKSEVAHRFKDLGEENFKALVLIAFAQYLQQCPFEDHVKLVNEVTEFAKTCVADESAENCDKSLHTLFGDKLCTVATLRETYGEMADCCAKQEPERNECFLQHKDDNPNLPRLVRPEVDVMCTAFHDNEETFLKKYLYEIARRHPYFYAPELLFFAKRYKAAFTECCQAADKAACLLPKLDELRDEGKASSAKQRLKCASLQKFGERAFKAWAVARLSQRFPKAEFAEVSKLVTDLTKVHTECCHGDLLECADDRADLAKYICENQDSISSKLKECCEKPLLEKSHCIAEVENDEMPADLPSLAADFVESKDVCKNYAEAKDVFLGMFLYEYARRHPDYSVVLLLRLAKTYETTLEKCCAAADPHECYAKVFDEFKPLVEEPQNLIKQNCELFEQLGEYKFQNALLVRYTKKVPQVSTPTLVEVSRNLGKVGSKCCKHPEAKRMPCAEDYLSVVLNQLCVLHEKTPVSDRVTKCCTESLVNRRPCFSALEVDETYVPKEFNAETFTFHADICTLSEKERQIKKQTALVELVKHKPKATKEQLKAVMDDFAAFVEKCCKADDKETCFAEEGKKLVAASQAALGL

- Blood ([1]; 1 h after administration): 13.6 ± 0.68 % ID/g
- Brain ([1]; 1 h after administration): 0.18 ± 0.00 % ID/g
- Heart ([1]; 1 h after administration): 3.74 ± 0.04 % ID/g
- Intestine ([1]; 1 h after administration): 1.22 ± 0.30 % ID/g
- Kidney ([1]; 1 h after administration): 90.1 ± 5.81 % ID/g
- LNCaP Tumor ([1]; 1 h after administration): 7.44 ± 0.18 % ID/g
- Liver ([1]; 1 h after administration): 2.23 ± 0.34 % ID/g
- Lung ([1]; 1 h after administration): 8.99 ± 1.68 % ID/g
- Muscle ([1]; 1 h after administration): 1.09 ± 0.25 % ID/g
- Pancreas ([1]; 1 h after administration): 1.61 ± 0.42 % ID/g
- Spleen ([1]; 1 h after administration): 16.9 ± 2.52 % ID/g
- Stomach (% ID) ([1]; 1 h after administration): 0.23 ± 0.06 % ID
- Blood ([1]; 4 h after administration): 5.73 ± 0.26 % ID/g
- Brain ([1]; 4 h after administration): 0.12 ± 0.01 % ID/g
- Heart ([1]; 4 h after administration): 1.78 ± 0.15 % ID/g
- Intestine ([1]; 4 h after administration): 1.05 ± 0.29 % ID/g
- Kidney ([1]; 4 h after administration): 126 ± 17.6 % ID/g
- LNCaP Tumor ([1]; 4 h after administration): 8.57 ± 0.61 % ID/g
- Liver ([1]; 4 h after administration): 1.29 ± 0.02 % ID/g
- Lung ([1]; 4 h after administration): 4.14 ± 0.61 % ID/g
- Muscle ([1]; 4 h after administration): 0.61 ± 0.11 % ID/g
- Pancreas ([1]; 4 h after administration): 0.82 ± 0.05 % ID/g
- Spleen ([1]; 4 h after administration): 8.16 ± 3.89 % ID/g
- Stomach (% ID) ([1]; 4 h after administration): 0.29 ± 0.18 % ID
- Blood ([1]; 24 h after administration): 2.48 ± 0.07 % ID/g
- Brain ([1]; 24 h after administration): 0.08 ± 0.01 % ID/g
- Heart ([1]; 24 h after administration): 0.79 ± 0.08 % ID/g
- Intestine ([1]; 24 h after administration): 0.68 ± 0.11 % ID/g
- Kidney ([1]; 24 h after administration): 101 ± 18.7 % ID/g
- LNCaP Tumor ([1]; 24 h after administration): 8.61 ± 1.06 % ID/g
- Liver ([1]; 24 h after administration): 1.00 ± 0.15 % ID/g
- Lung ([1]; 24 h after administration): 2.26 ± 0.29 % ID/g
- Muscle ([1]; 24 h after administration): 0.27 ± 0.11 % ID/g
- Pancreas ([1]; 24 h after administration): 0.65 ± 0.05 % ID/g
- Spleen ([1]; 24 h after administration): 2.67 ± 0.59 % ID/g
- Stomach (% ID) ([1]; 24 h after administration): 0.13 ± 0.06 % ID
- Blood ([1]; 48 h after administration): 0.20 ± 0.02 % ID/g
- Brain ([1]; 48 h after administration): 0.03 ± 0.00 % ID/g
- Heart ([1]; 48 h after administration): 0.14 ± 0.03 % ID/g
- Intestine ([1]; 48 h after administration): 0.23 ± 0.05 % ID/g
- Kidney ([1]; 48 h after administration): 11.7 ± 3.83 % ID/g
- LNCaP Tumor ([1]; 48 h after administration): 4.92 ± 0.70 % ID/g
- Liver ([1]; 48 h after administration): 0.58 ± 0.23 % ID/g
- Lung ([1]; 48 h after administration): 0.40 ± 0.10 % ID/g
- Muscle ([1]; 48 h after administration): 0.05 ± 0.04 % ID/g
- Pancreas ([1]; 48 h after administration): 0.25 ± 0.09 % ID/g
- Spleen ([1]; 48 h after administration): 0.83 ± 0.20 % ID/g
- Stomach (% ID) ([1]; 48 h after administration): 0.06 ± 0.03 % ID
- Blood ([1]; 96 h after administration): 0.13 ± 0.12 % ID/g
- Brain ([1]; 96 h after administration): 0.03 ± 0.02 % ID/g
- Heart ([1]; 96 h after administration): 0.14 ± 0.11 % ID/g
- Intestine ([1]; 96 h after administration): 0.17 ± 0.10 % ID/g
- Kidney ([1]; 96 h after administration): 9.71 ± 10.8 % ID/g
- LNCaP Tumor ([1]; 96 h after administration): 3.35 ± 0.90 % ID/g
- Liver ([1]; 96 h after administration): 1.30 ± 1.30 % ID/g
- Lung ([1]; 96 h after administration): 0.36 ± 0.24 % ID/g
- Muscle ([1]; 96 h after administration): 0.03 ± 0.02 % ID/g
- Pancreas ([1]; 96 h after administration): 0.18 ± 0.12 % ID/g
- Spleen ([1]; 96 h after administration): 0.47 ± 0.23 % ID/g
- Stomach (% ID) ([1]; 96 h after administration): 0.03 ± 0.01 % ID
- Blood ([1]; 192 h after administration): 0.02 ± 0.02 % ID/g
- Brain ([1]; 192 h after administration): 0.02 ± 0.00 % ID/g
- Heart ([1]; 192 h after administration): 0.22 ± 0.10 % ID/g
- Intestine ([1]; 192 h after administration): 0.10 ± 0.05 % ID/g
- Kidney ([1]; 192 h after administration): 1.83 ± 0.67 % ID/g
- LNCaP Tumor ([1]; 192 h after administration): 5.16 ± 0.23 % ID/g
- Liver ([1]; 192 h after administration): 0.64 ± 0.24 % ID/g
- Lung ([1]; 192 h after administration): 0.29 ± 0.07 % ID/g
- Muscle ([1]; 192 h after administration): 0.08 ± 0.00 % ID/g
- Pancreas ([1]; 192 h after administration): 0.29 ± 0.11 % ID/g
- Spleen ([1]; 192 h after administration): 0.88 ± 0.34 % ID/g
- Stomach (% ID) ([1]; 192 h after administration): 0.02 ± 0.01 % ID
- radioactivity in the eluate (in words) [2]: significantly higher
SMILES: O=C([O-])CN(CCN(CCc1ccc(NC(=O)[C@H](CCCCNC(=O)CCC(=O)NCCCC[C@H](NC(=O)N[C@@H](CCC(=O)O)C(=O)O)C(=O)O)NC(=O)CCCc2ccc(I)cc2)cc1)CCN(CC(=O)[O-])Cc1cccc(C(=O)[O-])n1)Cc1cccc(C(=O)[O-])n1.[111In+3] [[^111In]In-Neunpa-2]
